From paper PMC8096218, “Global RNA profiles show target selectivity and physiological effects of peptide-delivered antisense antibiotics” (Nucleic Acids Research, 2021)
“And” between values parts separate entries of the source, which are not always exact repeats. Equal values may be shown once.

Columns and labels:
[1] = test system: SL1344 ΔphoP; test: MIC determination by broth microdilution; format: cell-based, Salmonella enterica serovar Typhimurium; settings: ∼10^5 cfu/ml; for MIC in μM, SL1344 ΔphoP: Table 3, three biological replicates
Procedure: (§1) MIC values were determined by broth microdilution according to standard protocols with a few modifications ([26]). An overnight bacterial cell culture, supplemented with the appropriate antibiotic when needed, was diluted 1:100 in fresh MHB and grown to OD600 0.5. The obtained culture was diluted to ∼10^5 cfu/ml or 10^6 cfu/ml, as indicated, in non-cation-adjusted MHB. Subsequently, 190 μl bacterial solution was dispensed into a 96-well plate (Thermo Fisher Scientific) along with 10 μl of a 20x PPNA, PNA or peptide working solution. Growth was monitored by measuring the OD at 600 nm every 20 min in a Synergy H1 plate reader (Biotek) with continuous double-orbital shaking (237 cpm) at 37°C for 24 h.
Fig. S4. Growth kinetics for MIC determ ination of 10^5 cfu/m l Salmonella wt (SL1344) and its isogenic ∆phoP m utant in the pres ence of var ying concentrations of the indicated conjugates. ( A) KFF-acpP, KFF-acpP-scram bled (scr) or KFF peptide in serial dilutions from 10 µM to 0.3 µM. ( B) RXR- acpP, RXR-acpP-scram bled (scr) or RXR peptide in seria l d ilutions f rom 10 µM to 0. 3 µM. ( C) T at-acpP, T at-acpP-scrambled (scr) or T at peptide in serial dilutions from 20 µM to 0.6 µM. D ata represent the average of three biological replicates, error bars indicate standard er ror of the m ean […]
(§2) (1 picture or pasted object on this page, not shown here)

[2] = test system: wild-type Salmonella enterica serovar Typhimurium strain LT2; test: MIC determination by broth microdilution; format: cell-based; settings: Table 3; ∼10^5 cfu/ml; three biological replicates
Procedure: as §1
(§3) Fig. S5. Growth k inetics for MIC determ ination of 10^5 cfu/m l Salmonella wt (LT 2) and its isogenic
(§4) Pho PC m utant in the presen ce of var ying co ncentra tio n s of the in dicat ed co njugat e s. ( A) KFF-acpP,
(§5) KFF-acpP-scram bled (scr) or KFF peptide in s erial dilutions from 10 µM to 0.3 µM. ( B) RXR- acpP,
(§6) RXR- acpP-scram bled (scr) or RXR peptide in serial dilutions from 10 µM to 0.3 µ M. ( C) T at-acpP,
(§7) T at-acpP-scram bled (scr) or T at peptide in serial dilutions from 20 µM to 0.6 µM. Data represent
(§8) the average of three biological replicates, error bars indicate standard error of the m ean (SEM).
as §2

[3] = test system: LT2 PhoP^C; test: MIC determination by broth microdilution; format: cell-based, Salmonella enterica serovar Typhimurium; settings: ∼10^5 cfu/ml; for increase in the MIC in the PhoP^C background compared to the wild-type strain: LT2 PhoP^C versus LT2 wt; for MIC in μM, LT2 PhoP^C: Table 3, three biological replicates
Procedure: as §1, §3, §4, §5, §6, §7, §8, §2

[4] = test system: acpP mRNA; test: RNA-seq differential expression, target transcript; format: cell-based, Salmonella enterica serovar Typhimurium; settings: 5 μM KFF-/RXR-constructs, 10 μM Tat-constructs, triplicates; for reduction in acpP transcript levels (RNA-seq): 15 min post treatment, ∼10^6 cfu/ml, versus water control; for logFC acpP: edgeR, versus water, 15 min
Procedure: Bacterial overnight cultures were diluted 1:100 in fresh MHB and grown to OD600 0.5. The obtained cultures were diluted to ∼10^6 cfu/ml in non-cation-adjusted MHB. Afterward, the bacterial solution was transferred into low-binding 5 ml tubes (LABsolute) along with the 20× PNA, peptide or PPNA solution. The final concentrations were 5 μM for KFF- and RXR-PNAs, and 10 μM for Tat-PNAs. Equimolar concentrations were used for the respective peptide control conditions. As a negative control, cells were treated with the respective volume of sterile nuclease-free water, which was used as solvent for the test compounds.
A time kinetic was performed for subsequent northern blot analysis (5, 10, 15 min), in which the reaction was stopped at the indicated time points by using RNAprotect Bacteria (Qiagen). For RNA-seq analyses, adding RNAprotect Bacteria at 15 min post treatment stopped the reactions with the indicated PPNA constructs or the respective peptide. After vortexing for 5 s, the samples were incubated at room temperature for 10 min, followed by cell pelleting at 4°C and 21 100 ×g for 20 min. Pellets were directly used for RNA isolation or stored at –20°C (<2 days) until further processing. RNA was purified from bacterial pellets using isolation protocol #3, as described above (0.5 mg/ml lysozyme, miRNeasy).
DNase treatment, cDNA library preparation and sequencing was conducted at Vertis (Munich, Germany). The RNA samples were first fragmented using ultrasound (4 pulses of 30 s each at 4°C). Then, an oligonucleotide adapter was ligated to the 3′ ends of the RNA molecules. First-strand cDNA synthesis was performed using M-MLV reverse transcriptase and the 3′ adapter as primer. The first-strand cDNA was purified and the 5′ Illumina TruSeq sequencing adapter was ligated to the 3′ end of the antisense cDNA. The resulting cDNA was PCR-amplified to about 10–20 ng/μl using a high fidelity DNA polymerase. The cDNA was purified using the Agencourt AMPure XP kit (Beckman Coulter Genomics) and was analyzed by capillary electrophoresis. For Illumina NextSeq sequencing, the samples were pooled in approximately equimolar amounts. The cDNA pool was sequenced on an Illumina NextSeq 500 system using 75 bp read length.
Reads from the RNA-Seq experiments were trimmed, filtered and mapped against the S. enterica subsp. enterica serovar Typhimurium SL1344 reference genome and the three plasmids pSLT_SL1344, pCol1B9_SL1344 (other name is p2), and pRSF1010_SL1344 ([19]). BBDuk was applied to trim bases with a Phred quality score of <10, and adapters were removed simultaneously. Reads were then mapped against the reference genome using BBMap (v38.84) and then assigned genomic features, including both coding sequences and annotated sRNAs ([19],[29]) using the featureCounts method of the Subread (2.0.1) package.
All downstream analysis was performed using packages from the R/Bioconductor project. The raw read counts were imported and analyzed with edgeR (v3.30.0). Each set of PNA-peptide conjugate experiments (i.e. experiments with KFF, RXR and Tat peptide) was analyzed simultaneously. Genes with less than 14.6 counts per million (CPM) in at least three libraries were filtered. This cutoff value was calculated using 10/L, where L is the library size of the smallest sample (minimum library size) in millions.
Raw read counts were normalized by trimmed mean of M values (TMM) normalization. Differential expression analysis was conducted using edgeR ([31]). Estimation of quasi-likelihood (QL) dispersions was then run with the […] function. Then contrasts between all samples versus the water controls were created as input for the glmQLTest function.
Genes with an absolute fold change >2 and an adjusted P-value (Benjamini–Hochberg, ([32])) <0.001 were considered differentially expressed.

“GRKKKRRQRRRYK [Tat-acpP, Tat peptide conjugated to 10-mer antisense PNA against acpP]” was tested. Which “reduction in the MIC of the ΔphoP strain compared to wild-type Salmonella” value ([1]; SL1344 ΔphoP versus SL1344 wt) did it give?
Its value is 2 fold.

What about the “MIC in μM, SL1344 ΔphoP” value [1] of the same sequence?
The value was 2.5 µM.

And the “MIC in μM, LT2 wt” value [2]?
Its value is 2.5 to 5 µM.

And the “increase in the MIC in the PhoP^C background compared to the wild-type strain” value [3]?
The value was “at least two to four times more resistant”.

And the “MIC in μM, LT2 PhoP^C” value [3]?
Its value is 10 µM.

What about the “reduction in acpP transcript levels (RNA-seq)” value [4] of the same sequence?
The value was ~3 fold.

And the “logFC acpP” value [4]?
The value was -1.6191.

What does the source list for “KFFKFFKFFK [KFF-acpP, KFF peptide conjugated to 10-mer antisense PNA against the translational start site of acpP]”?
MIC in μM, SL1344 ΔphoP [1]: did not alter the MIC and 1.25 μM; MIC in μM, LT2 wt [2]: 1.25 µM; MIC in μM, LT2 PhoP^C [3]: did not influence the inhibitory activity and 1.25 μM; reduction in acpP transcript levels (RNA-seq) [4]: 4.5- to 5 fold; logFC acpP [4]: -2.241

Which results are given for “RXRRXRRXRRXRXB [RXR-acpP, RXR peptide conjugated to 10-mer antisense PNA against acpP]”?
MIC in μM, SL1344 ΔphoP [1]: 1.25 to 2.5 µM; MIC in μM, LT2 wt [2]: 1.25 µM; increase in the MIC in the PhoP^C background compared to the wild-type strain [3]: 2 fold; MIC in μM, LT2 PhoP^C [3]: 2.5 µM; reduction in acpP transcript levels (RNA-seq) [4]: 4.5- to 5 fold; logFC acpP [4]: -2.35
